In general, IC50 refers to the concentration that gives 50% inhibition.

Experimental findings from patent US7202244B2, “Chk-1 inhibitors” (Millennium Pharmaceuticals, Inc., priority 2002, dated 2007) are described below.

Test [1] addresses T1, GST-Chk1 (recombinant human Chk1) (Homo sapiens, UniProt O14757).
T1 construct: made in house; host or cells: insect cells (Bac-to-Bac baculovirus system)
T1 sequence (O14757 1-476): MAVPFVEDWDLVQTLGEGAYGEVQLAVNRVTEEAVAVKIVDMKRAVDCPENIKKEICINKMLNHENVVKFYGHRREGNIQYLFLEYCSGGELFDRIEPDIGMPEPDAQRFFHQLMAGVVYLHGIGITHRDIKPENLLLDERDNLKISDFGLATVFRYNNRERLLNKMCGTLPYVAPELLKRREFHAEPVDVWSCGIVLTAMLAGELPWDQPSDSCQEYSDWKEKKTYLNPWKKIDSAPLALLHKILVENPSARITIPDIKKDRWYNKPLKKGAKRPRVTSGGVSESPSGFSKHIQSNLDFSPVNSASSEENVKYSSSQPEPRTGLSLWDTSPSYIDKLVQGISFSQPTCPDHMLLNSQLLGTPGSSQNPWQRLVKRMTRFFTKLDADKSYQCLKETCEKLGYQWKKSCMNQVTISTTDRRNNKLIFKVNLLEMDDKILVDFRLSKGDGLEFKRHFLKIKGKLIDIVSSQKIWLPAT
Put plainly: Chk1 FlashPlate kinase assay. The format is biochemical. Conditions: 1 uM ATP. As to the method:
Recombinant human Chk1 was expressed as a fusion protein with glutathione S-transferase at the amino-terminus (GST-Chk1) using standard baculovirus vectors and (Bac-to-Bac®) insect cell expression system purchased from GIBCO™ Invitrogen. Recombinant protein expressed in insect cells was purified using glutathione sepharose (Amersham Biotech) using standard procedures described by the manufacturer.
Chk1 FlashPlate® Kinase Assay:
Reactions were incubated for 30 minutes at room temperature, terminated with 50 ul of 50 mM EDTA and 90 ul were transferred to streptavidin-coated FlashPlates® (NEN) and incubated for 1 hour at room temperature. Plates were washed with phosphate buffered salaine containing 0.01% Tween-20 and 10 mM sodium pyrophosphate. Plates were dried, sealed with Topseal™ (NEN) and amount of ^33P incorporated into the peptide substate measure using a Packard Topcount® NXT™ scintillation counter with standard settings.
Compounds of the present invention were tested in the Chk1 FlashPlate® kinase assay described above.

Test [2] deals with T2, CHK-1 (Homo sapiens, UniProt O14757).
T2 sequence (O14757 1-476): T1 sequence (O14757 1-476)
The test is described as follows: IC50 for the test compound versus CHK-1 (Table 2, assay format not stated). The format is biochemical.

The test system of test [3] is HT29, HCT116 or other cells. The test is described as follows: WST assay: enhancement of cell killing by DNA damaging agents. The format is cell-based. The note with it: shift of 1 = no shift; for Shift 78 nM: Chk1 inhibitor fixed at 78 nM with DNA damaging agent titration; for Shift 156 nM: Chk1 inhibitor fixed at 156 nM with DNA damaging agent titration; for Shift 313 nM: Chk1 inhibitor fixed at 313 nM with DNA damaging agent titration; for Shift 625 nM: Chk1 inhibitor fixed at 625 nM with DNA damaging agent titration; for Shift 1.25 μM: Chk1 inhibitor fixed at 1.25 μM with DNA damaging agent titration; for Shift 2.5 μM: Chk1 inhibitor fixed at 2.5 μM with DNA damaging agent titration. As to the method:
HT29, HCT116 (5000 cells/well) or other cells were seeded (75 ul) to 96 well clear bottom plates at densities which provide linear growth curves for 72 hours. Cells were cultured under sterile conditions in appropriate media and for HT29 & HCT116 this media was McCoy's 5A containing 10% Fetal Bovine Serum (FBS). Following the initial seeding of cells they are incubated at 37° C., 5% CO2 from 17 to 24 hours at which time the appropriate DNA damaging agents (camptothecins, 5-fluorouracil and etoposid) are added at increasing concentrations to a point which is capable of causing at least 80% cell killing with in 48 hours. Final volume of all DNA damaging agent & compound additions was 25 ul and assays contained <1% DMSO final. At the same time as DNA Damaging agent addition, Chk1 inhibitor was added at fixed concentrations to each DNA damaging agent titration to observe enhancement of cell killing. In addition, toxicity of each Chk1 inhibitor alone was observed. By doing this over a range of Chk1 inhibitor concentrations we were able to identify compounds which maximally enhance (2–30 fold) cell killing by each DNA damaging agent and generated ≦80% cell killing by the compound alone. Cell viability/cell killing under the conditions described above was determined by addition WST reagent (Roche) according to the manufacturer at 47 hours following DNA damage & Chk1 inhibitor addition and following a 3.5 hour or 2.5 hour incubation at 37 C, 5% CO2, OD450 was measured.

`COc1cc(Cl)c(C)cc1NC(=O)Nc1cnccn1` [Compound 46]: in test [1], the concentration for half-maximal inhibition (IC50) is less than 1 µM.

As to `Cc1cnc(NC(=O)Nc2cc(Cl)ccc2OCC(C)(C)CN)cn1` [Compound 109], the IC50 in test [1] was less than 0.1 µM. For the molecule `NCCCOc1ccc(Cl)cc1NC(=O)Nc1ccc(C(N)=O)cn1` [Compound 110], the 50% inhibitory concentration (IC50) in test [1] is less than 0.1 µM.

For `N#Cc1ccc(NC(=O)Nc2cc(Cl)ccc2OCCCN)nc1` [Compound 111], the IC50 in test [1] was less than 0.1 µM. In the case of `Cc1cnc(NC(=O)Nc2cc(Cl)ccc2OCCCNC2CCC2)cn1` [Compound 112], in test [1], the 50% inhibitory concentration (IC50) is less than 0.1 µM. In the case of `Cc1cnc(NC(=O)Nc2cc(Cl)ccc2OCCN(C)C)cn1` [Example 3, 1-[5-Chloro-2-(2-dimethylamino-ethoxy)-phenyl]-3-(5-methyl-pyrazin-2-yl)-urea], the IC50 in test [1] is less than 0.1 µM.

On to `O=C(Nc1cnccn1)Nc1cc(Cl)ccc1OCCN1CCOCC1` [Example 5, 1-[5-Chloro-2-(2-morpholin-4-yl-ethoxy)-phenyl]-3-pyrazin-2-yl-urea], for which the IC50 in test [1] is less than 1 µM.

On to `COc1ccc(Cl)cc1NC(=O)Nc1cnccn1` [Example 6, 1-(5-Chloro-2-methoxy-phenyl)-3-pyrazin-2-yl-urea], for which the IC50 in test [1] was less than 1 µM. As for `CC(C)CCOc1ccc(Cl)cc1NC(=O)Nc1cnccn1` [Example 7, 1-[5-Chloro-2-(3-methyl-butoxy)-phenyl]-3-pyrazin-2-yl-urea], in test [1], the IC50 was less than 1 µM. On the same count and under the same terms, the figure for `COc1ccc(C)cc1NC(=O)Nc1cnccn1` [Example 8, 1-(2-Methoxy-5-methyl-phenyl)-3-pyrazin-2-yl-urea] is less than 1 µM. For the molecule `O=C(Nc1cnccn1)Nc1ccccc1OC(F)(F)F` [Example 9, 1-Pyrazin-2-yl-3-(2-trifluoromethoxy-phenyl)-urea], the IC50 in test [1] is less than 1 µM. On the same count and under the same terms, the figure for `Cc1ccc(Cl)cc1NC(=O)Nc1cnccn1` [Example 10, 1-(5-Chloro-2-methyl-phenyl)-3-pyrazin-2-yl-urea] is less than 1 µM; for `COc1ccc(NC(C)=O)cc1NC(=O)Nc1cnccn1` [Example 11, N-[4-Methoxy-3-(3-pyrazin-2-yl-ureido)-phenyl]-acetamide] it is less than 1 µM; for `COC(=O)c1ccc(OC)c(NC(=O)Nc2cnccn2)c1` [Example 12, 4-Methoxy-3-(3-pyrazin-2-yl-ureido)-benzoic acid methyl ester] it is less than 1 µM.

Consider `COc1ccc(C(F)(F)F)cc1NC(=O)Nc1cnccn1` [Example 13, 1-(2-Methoxy-5-trifluoromethyl-phenyl)-3-pyrazin-2-yl-urea], for which the IC50 in test [1] was less than 1 µM. In the case of `COc1ccc(NC(=O)Nc2cnccn2)c(OC)c1` [Example 14, 1-(2,4-Dimethoxy-phenyl)-3-pyrazin-2-yl-urea], in test [1], the IC50 was less than 1 µM. Still for that read-out and setting: the figure for `COc1ccc(Cl)c(NC(=O)Nc2cnccn2)c1` [Example 15, 1-(2-Chloro-5-methoxy-phenyl)-3-pyrazin-2-yl-urea] is less than 1 µM; for `COc1ccc(Cl)cc1NC(=O)Nc1ccncn1` [Example 16, 1-(5-Chloro-2-methoxy-phenyl)-3-pyrimidin-4-yl-urea] it is less than 20 µM; for `COc1ccccc1NC(=O)Nc1cnccn1` [Example 17, 1-(2-Methoxy-phenyl)-3-pyrazin-2-yl-urea] it is less than 20 µM. In the case of `COc1ccc(NC(=O)Nc2cnccn2)cc1Cl` [Example 18, 1-(3-Chloro-4-methoxy-phenyl)-3-pyrazin-2-yl-urea], the concentration for half-maximal inhibition (IC50) in test [1] was less than 20 µM. Turning to `O=C(Nc1cccc(Cl)c1)Nc1cnccn1` [Example 19, 1-(3-Chloro-phenyl)-3-pyrazin-2-yl-urea], the concentration for half-maximal inhibition (IC50) in test [1] was less than 20 µM. For `O=C(Nc1ccc(N2CCCCC2)cc1)Nc1cnccn1` [Example 21, 1-(4-Piperidin-1-yl-phenyl)-3-pyrazin-2-yl-urea], the IC50 in test [1] is less than 20 µM. Still for that read-out and setting: the figure for `O=C(Nc1cnccn1)Nc1cnccn1` [Example 23, 1,3-Di-pyrazin-2-yl-urea] is less than 20 µM. On to `O=C(Nc1ccc2c(c1)OCO2)Nc1cnccn1` [Example 24, 1-Benzo[1,3]dioxol-5-yl-3-pyrazin-2-yl-urea], for which the IC50 in test [1] was less than 20 µM.

In the case of `O=C(Nc1cnccn1)Nc1cc(Cl)ccc1OCCN1CC1` [Example 26, 1-[2-(2-Aziridin-1-yl-ethoxy)-5-chloro-phenyl]-3-pyrazin-2-yl-urea], the half-maximal inhibitory concentration (IC50) in test [1] is less than 1 µM. In the case of `O=C(Nc1cnccn1)Nc1cc(Cl)ccc1OCc1cccnc1` [Example 27, 1-[5-Chloro-2-(pyridin-3-ylmethoxy)-phenyl]-3-pyrazin-2-yl-urea], in test [1], the IC50 is less than 1 µM. In turn, `Cc1cnc(NC(=O)Nc2cc(Cl)ccc2OCCCN)cn1` [Example 28] registered a half-maximal inhibitory concentration (IC50) in test [2] of 0.004 µM. In test [3], the “Shift 78 nM” value is given as 2.7, the “Shift 156 nM” value is on record as 3.4, the “Shift 313 nM” value came to 5.3 and the “Shift 625 nM” value is 6.8. In addition, in test [3], the “Shift 1.25 μM” value was “toxic” and the “Shift 2.5 μM” value was “toxic”. In turn, `NCCCOc1ccc(Cl)cc1NC(=O)Nc1cnccn1` [Example 29, 1-[2-(3-Amino-propoxy)-5-chloro-phenyl]-3-pyrazin-2-yl-urea] displayed an IC50 in test [2] of 0.0025 µM. Also, in test [3], the “Shift 78 nM” value is given as 2.5, the “Shift 156 nM” value came to 3.1, the “Shift 313 nM” value was found to be 4.5 and the “Shift 625 nM” value is reported as 5.0. Moreover, in test [3], the “Shift 1.25 μM” value is listed as “toxic” and the “Shift 2.5 μM” value was “toxic”. In test [2], `CN(C)CCCOc1ccc(Cl)cc1NC(=O)Nc1cnc2ccccc2n1` [Example 30, 1-[5-Chloro-2-(3-dimethylamino-propoxy)-phenyl]-3-quinoxalin-2-yl-urea] registered an IC50 of 0.019 µM. In test [3], the “Shift 1.25 μM” value turned out to be 1 and the “Shift 2.5 μM” value is 1.4.

In test [2], `NCCCOc1ccc(Cl)cc1NC(=O)Nc1cnc2ccccc2n1` [Example 31, 1-[2-(3-Amino-propoxy)-5-chloro-phenyl]-3-quinoxalin-2-yl-urea] gave an IC50 of 0.005 µM. Also, in test [3], the “Shift 156 nM” value is listed as 1.3, the “Shift 313 nM” value was found to be 1.8, the “Shift 625 nM” value worked out at 2.8 and the “Shift 1.25 μM” value was found to be 4.4. In test [3], the “Shift 2.5 μM” value is recorded as 6.2. In test [2], `NCCOc1ccc(Cl)cc1NC(=O)Nc1cnccn1` [Example 32, 1-[2-(2-Amino-ethoxy)-5-chloro-phenyl]-3-pyrazin-2-yl-urea] showed a 50% inhibitory concentration (IC50) of 0.016 µM. In test [3], the “Shift 1.25 μM” value is 1.2 and the “Shift 2.5 μM” value stood at 1.4. As for `Cc1cnc(NC(=O)Nc2cc(Cl)ccc2OCCCCN)cn1` [Example 33, 1-[2-(4-Amino-butoxy)-5-chloro-phenyl]-3-(5-methyl-pyrazin-2-yl)-urea], the half-inhibitory concentration (IC50) in test [2] worked out at 0.003 µM. Besides, in test [3], the “Shift 78 nM” value was determined as 1.8, the “Shift 156 nM” value was 2.4, the “Shift 313 nM” value is listed as 2.7 and the “Shift 625 nM” value is listed as 3.1. As for `COc1cncc(NC(=O)Nc2cc(Cl)ccc2OCCCN)n1` [Example 34], 0.02 µM corresponded to half-maximal inhibition in test [2] (IC50). Also, in test [3], the “Shift 1.25 μM” value came out at 2.4 and the “Shift 2.5 μM” value was determined as 3.031. `Cc1ccc(OCCCN(C)C)c(NC(=O)Nc2cnccn2)c1` [Example 35, 1-[5-Methyl-2-(3-dimethylamino-propoxy)-phenyl]-3-pyrazin-2-yl-urea] had an IC50 in test [2] of 0.016 µM. In test [3], the “Shift 1.25 μM” value is recorded as 2.1 and the “Shift 2.5 μM” value was found to be 2.9.
